Among the test systems are SF-539 CNS; ACHN renal; HCT-15 colon; MDA-N; TK-10 renal; SF-268 CNS; HCC-2998 colon; IGROV1 ovarian; EKVX NSCLC; MALME-3M melanoma.
Common to all, as to assay: growth of human tumour cells (NCI), 48 h

Each structure is given as a SMILES string.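 Five concentrations, 48 hours, 96-well plates. At the TGI there is no net growth.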

Consider `COc1cc2oc(-c3ccc4c(c3)OCO4)c(OC)c(=O)c2c(O)c1OC`, for which the TGI in the assay with SF-539 CNS, in the assay with ACHN renal, in the assay with HCT-15 colon, in the assay with MDA-N, in the assay with TK-10 renal and in the assay with SF-268 CNS was above 50 µM each time. Also, the TGI in the assay with HCC-2998 colon, in the assay with IGROV1 ovarian, in the assay with EKVX NSCLC and in the assay on MALME-3M melanoma was above 50 µM throughout.
For the compound `Cc1ccc(NC2=N/C(=C/c3ccco3)C(Cl)=N2)cc1`, the TGI in the assay with SF-539 CNS, in the assay with ACHN renal, in the assay on HCT-15 colon, in the assay with MDA-N, in the assay with TK-10 renal and with SF-268 CNS was above 100 µM each time. Besides, the TGI in the assay with HCC-2998 colon is above 49.7 µM; in the assay with IGROV1 ovarian, above 100 µM; with EKVX NSCLC it was above 100 µM; with MALME-3M melanoma, above 100 µM.
Take `CNC(=O)N(CCC#N)CCCN(C(=O)N(C)C)c1ccccc1`: the TGI in the assay on SF-539 CNS, in the assay with ACHN renal, in the assay with HCT-15 colon, in the assay on MDA-N, with TK-10 renal and with SF-268 CNS was above 100 µM in each case. The TGI in the assay on HCC-2998 colon, with IGROV1 ovarian, with EKVX NSCLC and in the assay with MALME-3M melanoma was above 100 µM each time.
For `Cn1ccc2c(c1=O)C(=O)OC2(C)C`, the TGI in the assay on SF-539 CNS, in the assay with ACHN renal, in the assay with HCT-15 colon, with MDA-N, in the assay on TK-10 renal and in the assay on SF-268 CNS was above 100 µM throughout. The TGI in the assay with HCC-2998 colon, with IGROV1 ovarian, in the assay on EKVX NSCLC and with MALME-3M melanoma was above 100 µM in each case.
For `COC(=O)c1cc(C)ccc1/C=C1\Cc2c(C)cc(C)cc2C1=O`, the TGI is 42.3 µM in the assay with SF-539 CNS; above 100 µM with ACHN renal; above 100 µM with HCT-15 colon; above 100 µM with MDA-N; 40 µM in the assay with TK-10 renal; 37.1 µM with SF-268 CNS. Moreover, the TGI in the assay with HCC-2998 colon was above 100 µM; with IGROV1 ovarian, above 100 µM; with EKVX NSCLC, above 88.4 µM; in the assay on MALME-3M melanoma it was above 100 µM.
Take `COc1cccc(NC(=O)CC(=O)N2N=C(C)C(N=Nc3ccc(C(=O)O)cc3)C2=O)c1` (stereo not given): the TGI with SF-539 CNS, with ACHN renal, in the assay on HCT-15 colon, in the assay with MDA-N, in the assay with TK-10 renal and in the assay with SF-268 CNS was above 100 µM in each case. Moreover, the TGI in the assay on HCC-2998 colon, with IGROV1 ovarian, with EKVX NSCLC and in the assay with MALME-3M melanoma was above 100 µM throughout.
With `COC(=O)c1cc(C)ccc1C1CN=NC12Cc1c(C)cc(C)cc1C2=O` (stereo not given), the TGI in the assay on SF-539 CNS is 32.7 µM; in the assay on ACHN renal, above 100 µM; in the assay with HCT-15 colon, 69.1 µM; with MDA-N, 42 µM; with TK-10 renal, 82.5 µM; with SF-268 CNS it was 98.9 µM. Further, the TGI with HCC-2998 colon was 78.2 µM; with IGROV1 ovarian it was above 100 µM; with EKVX NSCLC, above 100 µM; in the assay on MALME-3M melanoma it was 60.6 µM.
Consider `COc1ccc2c(c1)C(=O)C1CCC(=O)N1C2c1ccc2c(c1)OCO2` (stereo not given), for which the TGI in the assay with SF-539 CNS was 42.7 µM; in the assay on ACHN renal, 38.3 µM; in the assay on HCT-15 colon, 29.6 µM; in the assay with MDA-N it was above 100 µM; in the assay with TK-10 renal, 86.1 µM; in the assay on SF-268 CNS, 53.3 µM. Also, the TGI in the assay with HCC-2998 colon was found to be 28 µM; in the assay with IGROV1 ovarian it was 32.5 µM; in the assay with EKVX NSCLC, 40.2 µM; in the assay on MALME-3M melanoma, 15.9 µM.
In the case of `O=[N+]([O-])c1cc(F)ccc1Sc1ccccc1`, the TGI in the assay with SF-539 CNS, in the assay with ACHN renal, with HCT-15 colon, in the assay with MDA-N, in the assay with TK-10 renal and in the assay on SF-268 CNS was above 10 µM throughout. Moreover, the TGI with HCC-2998 colon, in the assay on IGROV1 ovarian, in the assay on EKVX NSCLC and with MALME-3M melanoma was above 10 µM each time.
In the case of `COC(=O)/C=c1/c2ccccc2n2c1c1ccccc1[n+]2C`, the TGI in the assay with SF-539 CNS was 14 µM; in the assay with ACHN renal, 14.7 µM; with HCT-15 colon it was 33.1 µM; in the assay on MDA-N it was 11.1 µM; in the assay with TK-10 renal, 9.93 µM; in the assay with SF-268 CNS it was 22.8 µM. Moreover, the TGI worked out at 5.75 µM in the assay with HCC-2998 colon, 20.9 µM with IGROV1 ovarian, 7.79 µM in the assay with EKVX NSCLC and 6.74 µM in the assay on MALME-3M melanoma.
`COc1ccc(OC)c(C[P+](c2ccccc2)(c2ccccc2)c2ccccc2)c1`: the TGI in the assay with SF-539 CNS was 39.2 µM; in the assay on ACHN renal it was above 64.2 µM; in the assay on HCT-15 colon, above 100 µM; in the assay on MDA-N, 29.8 µM; in the assay with TK-10 renal it was above 92.6 µM; with SF-268 CNS it was above 100 µM. Also, the TGI in the assay with HCC-2998 colon is 26.2 µM; with IGROV1 ovarian, 21.7 µM; in the assay with EKVX NSCLC, above 94.6 µM; with MALME-3M melanoma it was 23.3 µM.
Turning to `CC(=O)NC(=O)NC1=NCCC(=O)N1CCc1c[nH]c2ccccc12`, the TGI in the assay on SF-539 CNS, with ACHN renal, in the assay on HCT-15 colon, in the assay on MDA-N, in the assay on TK-10 renal and in the assay on SF-268 CNS was above 100 µM in each case. For the same compound, the TGI in the assay on HCC-2998 colon, in the assay with IGROV1 ovarian, in the assay on EKVX NSCLC and in the assay with MALME-3M melanoma was above 100 µM in each case.
Regarding `Nn1c(Sc2nc3ccccc3c(=O)n2N)nc2ccccc2c1=O`, the TGI amounted to 6.24 µM with SF-539 CNS; 26.4 µM with ACHN renal; 16.5 µM in the assay on HCT-15 colon; 15.5 µM with MDA-N; 42.2 µM in the assay on TK-10 renal; 22.3 µM with SF-268 CNS. The TGI in the assay with HCC-2998 colon came out at 30.7 µM; with IGROV1 ovarian, 23.3 µM; in the assay with EKVX NSCLC it was 38.9 µM; in the assay with MALME-3M melanoma, 12.8 µM.
On to `O=c1oc2cccnc2n1CCCCN1CCN(c2ccccc2)CC1`, for which the TGI with SF-539 CNS, in the assay with ACHN renal, in the assay with HCT-15 colon, in the assay with MDA-N, in the assay on TK-10 renal and in the assay on SF-268 CNS was above 100 µM in each case. For the same compound, the TGI in the assay on HCC-2998 colon, in the assay on IGROV1 ovarian, in the assay on EKVX NSCLC and in the assay with MALME-3M melanoma was above 100 µM throughout.
Regarding `COC(=O)C1CC23C=CCN4CC(C2C)C2(c5ccccc5NC12)C43` (stereo not given), the TGI in the assay with SF-539 CNS, with ACHN renal, in the assay with HCT-15 colon, in the assay on MDA-N, with TK-10 renal and in the assay with SF-268 CNS was above 100 µM throughout. Further, the TGI in the assay with HCC-2998 colon, in the assay on IGROV1 ovarian, in the assay on EKVX NSCLC and in the assay with MALME-3M melanoma was above 100 µM throughout.
For `Clc1nc2c(C#Cc3ccccc3)ncnc2n1C1CCCCO1` (stereo not given), the TGI in the assay with SF-539 CNS was determined as 42.2 µM; in the assay on ACHN renal it was 30.9 µM; with HCT-15 colon, 31 µM; in the assay on MDA-N it was 25.2 µM; in the assay with TK-10 renal, 53 µM; with SF-268 CNS, 37.2 µM. In addition, the TGI is 28.7 µM in the assay with HCC-2998 colon, 29.2 µM in the assay with IGROV1 ovarian, 12.4 µM in the assay with EKVX NSCLC and 41.7 µM in the assay with MALME-3M melanoma.
As to `O=C(O)COc1cc(-c2ccccc2)nc2ccccc12`, the TGI in the assay on SF-539 CNS is above 100 µM; with ACHN renal, above 100 µM; in the assay with HCT-15 colon, above 100 µM; in the assay on MDA-N it was 85.7 µM; in the assay with TK-10 renal it was above 100 µM; in the assay on SF-268 CNS it was above 100 µM. Moreover, the TGI with HCC-2998 colon, in the assay on IGROV1 ovarian, with EKVX NSCLC and in the assay on MALME-3M melanoma was above 100 µM each time.
For the compound `Cc1c(C#N)c(=N)oc2ccccc12`, the TGI with SF-539 CNS, in the assay on ACHN renal, in the assay on HCT-15 colon, in the assay with MDA-N, in the assay on TK-10 renal and in the assay with SF-268 CNS was above 100 µM throughout. Further, the TGI in the assay on HCC-2998 colon, in the assay with IGROV1 ovarian, in the assay on EKVX NSCLC and with MALME-3M melanoma was above 100 µM in each case.
For the compound `CCN(CC)C1Oc2cc3c(cc2C(c2cc(OC)c(OC)c(OC)c2)C1C)OCO3` (stereo not given), the TGI in the assay on SF-539 CNS was 1.43 µM; in the assay with ACHN renal it was above 38.7 µM; with HCT-15 colon, 13.3 µM; in the assay on MDA-N it was 0.456 µM; in the assay with TK-10 renal, above 72.1 µM; with SF-268 CNS it was above 58.2 µM. Further, the TGI with HCC-2998 colon is 19.8 µM; in the assay with IGROV1 ovarian, above 63.2 µM; in the assay with EKVX NSCLC, above 75.5 µM; in the assay on MALME-3M melanoma, above 64 µM.
`CN(C)CCNC(=O)c1cc(NC(=O)c2cc(NC(=O)CC/C=C3/[C@@H]4CC[C@H]3N=N4)cn2C)cn1C`: the TGI in the assay with SF-539 CNS, in the assay on ACHN renal, in the assay on HCT-15 colon, in the assay with MDA-N, with TK-10 renal and in the assay with SF-268 CNS was above 100 µM each time. Moreover, the TGI in the assay with HCC-2998 colon, with IGROV1 ovarian, in the assay with EKVX NSCLC and in the assay on MALME-3M melanoma was above 100 µM each time.
Consider `O=C1c2ccccc2C(=O)c2nn(N=P(CP(=Nn3nc4c(n3)C(=O)c3ccccc3C4=O)(c3ccccc3)c3ccccc3)(c3ccccc3)c3ccccc3)nc21`, for which the TGI with SF-539 CNS, with ACHN renal, in the assay with HCT-15 colon, in the assay with MDA-N, in the assay with TK-10 renal and in the assay on SF-268 CNS was above 100 µM throughout. The TGI with HCC-2998 colon, in the assay with IGROV1 ovarian, with EKVX NSCLC and in the assay on MALME-3M melanoma was above 100 µM in each case.

(Values after PubChem BioAssay (NCI).)
